Results: US9783511B2, “Carbamate benzoxazine propionic acids and acid derivatives for modulation of RORgamma activity and the treatment of disease” (Merck Sharp & Dohme Corp., priority 2013, dated 2017)

Molecular target: human RORgammaT-Ligand Binding Domain (LBD) (Homo sapiens (Human), UniProt P51449)
Experiment: RORγ-Ligand Binding Domain TR-FRET Assay (co-activator peptide SRC1_2 recruitment)
Format: biochemical
Conditions: HIS-tagged RORγ-LBD 3 nM, biotinylated SRC1 LXXLL peptide 100 nM, incubated overnight at 4° C., 665 nm/615 nm ratio
Text: Activation of RORgammaT activity can be measured using, e.g., a biochemical TR-FRET assay. In such an assay, interaction of cofactor-derived peptides with human RORgammaT-Ligand Binding Domain (LBD) can be measured.
To identify novel antagonists of RORgammaT, an assay was developed which employs the interaction of RORgammaT with its co-activator peptide SRC1_2. […] The RORγ-Ligand Binding Domain TR-FRET Assay was run according to the following protocol.
HIS-tagged RORγ-LBD protein was recombinantly expressed in Escherichia coli. The RORγ-LBD protein was purified by Ni^2+-affinity resin. Purified protein was then diluted in assay buffer (50 mM Tris pH 7.0, 50 mM KCl, 1 mM EDTA, 0.1 mM DTT, 100 μg/mL bovine serum albumin, delipidated) to obtain a RORγ-LBD final concentration of 3 nM.
Compounds to be tested were injected to the 384-well assay plate using Acoustic Droplet Ejection technology by Echo 550 liquid handler (Labcyte, CA).

human RORgammaT-Ligand Binding Domain (LBD), sequence (P51449 269-508): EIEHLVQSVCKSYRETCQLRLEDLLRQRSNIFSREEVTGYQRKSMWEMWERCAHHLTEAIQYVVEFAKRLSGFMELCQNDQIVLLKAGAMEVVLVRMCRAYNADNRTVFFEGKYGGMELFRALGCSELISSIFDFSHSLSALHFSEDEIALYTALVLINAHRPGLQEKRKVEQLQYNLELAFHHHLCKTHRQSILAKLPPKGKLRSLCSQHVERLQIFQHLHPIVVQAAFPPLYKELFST

Structure (SMILES) | IC50 [nM]
CC[C@@H](C[C@H]1CN(S(=O)(=O)c2cccc(C3CC3)c2)c2cc(NC(=O)OC(C)(C)C(F)(F)F)ccc2O1)C(=O)O (single isomer, unassigned) [Example 10F, (R or S)-2-(((S)-4-((3-cyclopropylphenyl)sulfonyl)-6-((((1,1,1-trifluoro-2-methylpropan-2-yl)oxy)carbonyl)amino)-3,4-dihydro-2H-benzo[b][1,4]oxazin-2-yl)methyl)butanoic acid] | 13.3
CC[C@H](C[C@H]1CN(S(=O)(=O)c2cn(CC)nc2OCCO)c2cc(NC(=O)OC(C)(C)C(F)(F)F)ccc2O1)C(=O)O (single isomer, unassigned) [Example 10L, (R or S)-2-(((S)-4-((1-ethyl-3-(2-hydroxyethoxy)-1H-pyrazol-4-yl)sulfonyl)-6-((((1,1,1-trifluoro-2-methylpropan-2-yl)oxy)carbonyl)amino)-3,4-dihydro-2H-benzo[b][1,4]oxazin-2-yl)methyl)butanoic acid] | 49.5
CC[C@@H](C[C@H]1CN(S(=O)(=O)c2cn(CC)nc2OCCO)c2cc(NC(=O)OC(C)(C)C(F)(F)F)ccc2O1)C(=O)O (single isomer, unassigned) [Example 10N, (R or S)-2-(((S)-4-((1-ethyl-3-(2-hydroxyethoxy)-1H-pyrazol-4-yl)sulfonyl)-6-((((1,1,1-trifluoro-2-methylpropan-2-yl)oxy)carbonyl)amino)-3,4-dihydro-2H-benzo[b][1,4]oxazin-2-yl)methyl)butanoic acid] | 67.2
Cc1cc(S(=O)(=O)N2C[C@H](C[C@@H](C(=O)O)C3CC3)Oc3ccc(NC(=O)OC(C)(C)C(F)(F)F)cc32)ccc1F (single isomer, unassigned) [Example 10T, (R or S)-2-cyclopropyl-3-((S)-4-((4-fluoro-3-methylphenyl)sulfonyl)-6-((((1,1,1-trifluoro-2-methylpropan-2-yl)oxy)carbonyl)amino)-3,4-dihydro-2H-benzo[b][1,4]oxazin-2-yl)propanoic acid] | 16
Cc1cc(S(=O)(=O)N2C[C@H](C[C@H](C(=O)O)C3CC3)Oc3ccc(NC(=O)OC(C)(C)C(F)(F)F)cc32)ccc1F (single isomer, unassigned) [Example 10X, (R or S)-2-cyclopropyl-3-((S)-4-((4-fluoro-3-methylphenyl)sulfonyl)-6-((((1,1,1-trifluoro-2-methylpropan-2-yl)oxy)carbonyl)amino)-3,4-dihydro-2H-benzo[b][1,4]oxazin-2-yl)propanoic acid] | 32.8
COc1cc(S(=O)(=O)N2C[C@H](C[C@@](C)(O)C(=O)O)Oc3ccc(NC(=O)OC(C)(C)C(F)(F)F)cc32)ccc1F (single isomer, unassigned) [Example 18A, (R or S)-3-((S)-4-((4-fluoro-3-methoxyphenyl)sulfonyl)-6-((((1,1,1-trifluoro-2-methylpropan-2-yl)oxy)carbonyl)amino)-3,4-dihydro-2H-benzo[b][1,4]oxazin-2-yl)-2-hydroxy-2-methylpropanoic acid] | 12.9
COc1cc(S(=O)(=O)N2C[C@H](C[C@](C)(O)C(=O)O)Oc3ccc(NC(=O)OC(C)(C)C(F)(F)F)cc32)ccc1F (single isomer, unassigned) [Example 18C, (R or S)-3-((S)-4-((4-fluoro-3-methoxyphenyl)sulfonyl)-6-((((1,1,1-trifluoro-2-methylpropan-2-yl)oxy)carbonyl)amino)-3,4-dihydro-2H-benzo[b][1,4]oxazin-2-yl)-2-hydroxy-2-methylpropanoic acid] | 25
COc1cc(S(=O)(=O)N2C[C@H](CC(C)(CO)C(=O)O)Oc3ccc(NC(=O)OC(C)(C)C(F)(F)F)cc32)ccc1F (single isomer, unassigned) [Example 18J, (S or R)-3-((S)-4-((4-fluoro-3-methoxyphenyl)sulfonyl)-6-((((1,1,1-trifluoro-2-methylpropan-2-yl)oxy)carbonyl)amino)-3,4-dihydro-2H-benzo[b][1,4]oxazin-2-yl)-2-(hydroxymethyl)-2-methylpropanoic acid] | 9.13
COc1cc(S(=O)(=O)N2C[C@H](CC(C)(CO)C(=O)O)Oc3ccc(NC(=O)OC(C)(C)C(F)(F)F)cc32)ccc1F (single isomer, unassigned) [Example 18L, (S or R)-3-((S)-4-((4-fluoro-3-methoxyphenyl)sulfonyl)-6-((((1,1,1-trifluoro-2-methylpropan-2-yl)oxy)carbonyl)amino)-3,4-dihydro-2H-benzo[b][1,4]oxazin-2-yl)-2-(hydroxymethyl)-2-methylpropanoic acid] | 10.4
CC(C)(OC(=O)Nc1ccc2c(c1)N(S(=O)(=O)c1ccc(F)c(C(F)(F)F)c1)C[C@H]([C@@H](CC(=O)O)C1CC1)O2)C(F)(F)F (single isomer, unassigned) [Example 21A, (S or R)-3-cyclopropyl-3-((S)-4-((4-fluoro-3-(trifluoromethyl)phenyl)sulfonyl)-6-((((1,1,1-trifluoro-2-methylpropan-2-yl)oxy)carbonyl)amino)-3,4-dihydro-2H-benzo[b][1,4]oxazin-2-yl)propanoic acid] | 28
CC(C)(OC(=O)Nc1ccc2c(c1)N(S(=O)(=O)c1ccc(F)c(C(F)(F)F)c1)C[C@H]([C@H](CC(=O)O)C1CC1)O2)C(F)(F)F (single isomer, unassigned) [Example 21C, (S or R)-3-cyclopropyl-3-((S)-4-((4-fluoro-3-(trifluoromethyl)phenyl)sulfonyl)-6-((((1,1,1-trifluoro-2-methylpropan-2-yl)oxy)carbonyl)amino)-3,4-dihydro-2H-benzo[b][1,4]oxazin-2-yl)propanoic acid] | 30.4
Cc1ccc(S(=O)(=O)N2C[C@H]([C@H]3C[C@H]3C(=O)O)Oc3ccc(NC(=O)OC(C)(C)C(F)(F)F)cc32)cc1 (single isomer, unassigned) [Example 22E, (1S,2S or 1R,2R or 1S,2R or 1R,2S)-2-((S)-4-tosyl-6-((((1,1,1-trifluoro-2-methylpropan-2-yl)oxy)carbonyl)amino)-3,4-dihydro-2H-benzo[b][1,4]oxazin-2-yl)cyclopropanecarboxylic acid] | 47.1
Cc1ccc(S(=O)(=O)N2C[C@H]([C@@H]3C[C@@H]3C(=O)O)Oc3ccc(NC(=O)OC(C)(C)C(F)(F)F)cc32)cc1 (single isomer, unassigned) [Example 22F, (1S,2S or 1R,2R or 1S,2R or 1R,2S)-2-((S)-4-tosyl-6-((((1,1,1-trifluoro-2-methylpropan-2-yl)oxy)carbonyl)amino)-3,4-dihydro-2H-benzo[b][1,4]oxazin-2-yl)cylcopropanecarboxylic acid] | 75.7
Cc1ccc(S(=O)(=O)N2C[C@H]([C@H]3C[C@@H]3C(=O)O)Oc3ccc(NC(=O)OC(C)(C)C(F)(F)F)cc32)cc1 (single isomer, unassigned) [Example 22G, (1S,2S or 1R,2R or 1S,2R or 1R,2S)-2-((S)-4-tosyl-6-((((1,1,1-trifluoro-2-methylpropan-2-yl)oxy)carbonyl)amino)-3,4-dihydro-2H-benzo[b][1,4]oxazin-2-yl)cyclopropanecarboxylic acid] | 34.2
